Data published in US12172946B2, “Compound containing diphenylmethane structure and use thereof” (GUANGZHOU TROJAN PHARMATEC LTD., priority 2019, dated 2024).

Test: solubility of the compound in common solvents
Format: physicochemical
Details: 25-30° C.; for solubility in DMF: N,N-dimethylformamide; for solubility in i-PrOAc: isopropyl acetate; for solubility in MTBE: methyl tert-butyl ether
Procedure: The solubility of the compound of the present invention in common solvents was investigated (25-30° C.), and the results are shown in Table 1. It can be seen from Table 1 that the compound of the present invention has good solubility in all of heptane, isopropyl acetate (i-PrOAc), methyl tert-butyl ether (MTBE) and N,N-dimethylformamide (DMF), and particularly, the solubility in N,N-dimethylformamide is much higher than Comparative Examples.

Compound	solubility in DMSO [%]	solubility in MeOH [%]	solubility in DMF [%]	solubility in Heptane [%]	solubility in i-PrOAc [%]	solubility in MTBE [%]
CCCCCCCCCCCCCOc1cc(C(=O)NCCCC(=O)NCCOCCOc2ccc(C(N)c3ccccc3)cc2)cc(OCCCCCCCCCCCCC)c1OCCCCCCCCCCCCC (stereo not drawn) [DPA-015, 4-(2-(2-(4-(3,4,5-tri(isomeric tridecyloxy)-benzamido)-butyrylamido)-ethoxy)-ethoxy)-benzhydrylamine]	<1	<1	>100	>50	>100	>100
CC(C)CCCCCOc1cc(C(=O)NCCOCCOc2ccc(C(N)c3ccc(OCCOCCNC(=O)c4cc(OCCCCCC(C)C)c(OCCCCCC(C)C)c(OCCCCCC(C)C)c4)cc3)cc2)cc(OCCCCCC(C)C)c1OCCCCCC(C)C [DPA-001, 4,4′-di(2-(2-(3,4,5-tris(isooctyloxy)-benzamido)-ethoxy)-ethoxy) benzhydrylamine]	<1	<1	>20	>25	>30	>30
4-(2-(2-(3,4,5-tri(octa/decy/dodecyloxy)-benzamido)-ethoxy)-ethoxy)-benzhydrylamine [DPA-024]	<1	<1	>30	>50	>100	>100
CCCCCCCCCCCCCOc1ccc(CN(CCOCCOc2ccc(C(N)c3ccccc3)cc2)C(C)=O)cc1OCCCCCCCCCCCCC (stereo not drawn) [DPA-027]	<1	<1	>75	>50	>75	>75
CC(C)CCCCCCCCCCCCCCC(=O)NCCCCC(NC(=O)CCCCCCCCCCCCCCC(C)C)C(=O)NCCOCCOc1ccc(C(N)c2ccccc2)cc1 (stereo not drawn) [DPA-014, 4-(2-(2-(2,6-diisostearamido-hexanamido)-ethoxy)-ethoxy)-benzhydrylamine]	<10	<10	>40	>30	>50	>50
CC(CCC(C(=O)NCCOCCOc1ccc(C(N)c2ccc(OCCOCCNC(=O)C(CCC(C)CC(C)(C)C)C(C)CC(C)(C)C)cc2)cc1)C(C)CC(C)(C)C)CC(C)(C)C (stereo not drawn) [DPA-018, 4,4′-di(2-(2-(isostearamido)-ethoxy)-ethoxy)-benzhydrylamine]	<5	<10	>100	>5	>100	>100

More lines, now with the values ahead:

solubility in DMSO [%]	solubility in MeOH [%]	solubility in DMF [%]	solubility in Heptane [%]	solubility in i-PrOAc [%]	solubility in MTBE [%]	Compound
<1	<1	>100	>50	>100	>100	CCCCCCCCCCCCCOc1ccc(CN(CC(=O)NCCOCCOc2ccc(C(N)c3ccccc3)cc2)C(=O)c2cc(OCCCCCCCCC)c(OCCCCCCCCC)c(OCCCCCCCCC)c2)cc1OCCCCCCCCCCCCC (stereo not drawn) [DPA-031, 4-(2-(2-(2-(N″-3,4-di(isomeric tridecyloxy)-benzyl)-3,4,5-tri(isononyloxy)-benzamido)-acetamido)-ethoxy)-ethoxy-benzhydrylamine]
<1	<1	>100	>100	>100	>100	CCCCCCCCCCCCCOc1cc(C(=O)NCCOCCOc2ccc(C(N)c3ccccc3)cc2)cc(OCCCCCCCCCCCCC)c1OCCCCCCCCCCCCC (stereo not drawn) [DPA-007, 4-(2-(2-(3,4,5-tris(isomeric tridecyloxy)-benzamido)-ethoxy)-ethoxy)-benzhydrylamine]
<1	<1	>40	>30	>50	>50	CCCCCCCCCCCCCOc1cc(C(=O)NCCOCCOc2ccc(C(O)(c3ccccc3)c3ccc(Cl)cc3)cc2)cc(OCCCCCCCCCCCCC)c1OCCCCCCCCCCCCC (stereo not drawn) [DPA-034]
<5	<10	>50	>50	>100	>100	CC(CCC(C(=O)N(CCOCCOc1ccc(C(N)c2ccccc2)cc1)Cc1ccccc1)C(C)CC(C)(C)C)CC(C)(C)C (stereo not drawn) [DPA-019]
